In US10463592B2, “Peptide with anti-aging effect and use thereof” (Osaka University, priority 2013, dated 2019):

Assays:
[1] = test system: human monocytic cell line THP-1; test: Sensitization test by the h-CLAT assay (overall evaluation); type: cell-based; settings: even at high concentrations; positive if RFI of CD86>150 and RFI of CD54>200; 24 hours
Description: Into a 75-cm^2 flask was placed 50 mL of a suspension of the human monocytic cell line THP-1 (JCRB accession number: JCRB0112) at a density of 2.0×10^5 cells/mL in RPMI 1640 culture medium containing 10% FBS and 0.05 mM mercaptoethanol. The cells were precultured for 48 hours. The precultured THP-1 cells were harvested by centrifugation and suspended at 2.0×10^6 cells/mL in RPMI 1640 culture medium containing 10% FBS and 0.05 mM mercaptoethanol. To each well of 24-well plates, 500 μL of the cell suspension was seeded. To each well containing the seeded cell suspension, 500 μL of each peptide in the same culture medium was added. […] Then, 1×10^4 living cells were analyzed by flow cytometry to determine the expression levels of the cell surface antigens. […] The relative fluorescence intensities (RFIs) were calculated from the mean of the measured fluorescence intensities (MFIs) in accordance with the following equation.
From the survival rates and the RFI values of CD86 and CD54 expressions, the sensitization potentials were evaluated. The sensitization potentials of the test samples were determined to be positive when the RFIs of the antigen expressions in the sample treatment groups satisfy the following equations: the RFI of CD86>150, and the RFI of CD54>200. […]

[2] = test system: Normal human dermal fibroblasts (NHDF); test: Fibroblast growth-promoting activity, Cell Counting Kit (WST-1); type: cell-based; settings: for Fibroblast growth (% of control): NHDF, 2 days culture, WST-1
Description: The fibroblast growth-promoting activity of the peptides was determined using Cell Counting Kit (WST-1) (Dojindo Laboratories). As a control, a group containing no peptide was used. Normal human dermal fibroblasts (from newborns) (Kurabo Industries Ltd., hereinafter called NHDF) were seeded in 96-well plates (0.5×10^4 cells/100 μL per well). The culture medium used was Medium 106 (containing 1% FBS without growth supplements). About 3 hours after cell seeding, 100 μL of a solution of each peptide in the culture medium was added to a final peptide concentration of 0.3, 1, 3, 10, or 30 μM. To control wells, 100 μL of the culture medium alone was added. To blank wells containing no cells, 200 μL of the culture medium alone was added. The cells were cultured in a CO2 incubator for 2 days. After the culture, 20 μL of the WST-1 reagent was added to each well and the plates were allowed to stand in a CO2 incubator for about 2 to 4 hours. The absorbance at 450 nm and 620 nm was determined with a microplate reader (Wallac 1420 ARVOsx (program: WST-1)), and the measured values were corrected by the equation: OD450-OD620. The net OD450 was calculated by subtracting the mean OD450-OD620 of the blank wells from the OD450-OD620 of the test wells. The percent fibroblast growth was calculated as the ratio (%) of the net OD450 of each peptide addition group to that of the control group. The effect of promoting fibroblast growth was evaluated on the basis of the percent fibroblast growth.
The examination was conducted in the same manner as in Example 2 except that the concentration of each peptide was set at 3, 10, 30, 100 or 300 μM.

[3] = test system: NHDF (NB) cells; test: Hyaluronic acid production by fibroblasts, ELISA; type: cell-based, human; settings: for Hyaluronic acid production (% of control): highest value over 3, 10, 30, 100 and 300 μM, 5 days
Description: The amount of the hyaluronic acid production by fibroblasts was determined by ELISA. As a control, a group containing no peptide was used. NHDF (NB) cells were seeded in 24-well plates and cultured overnight (2×10^4 cells/500 μL per well). The culture medium used was Medium 106 (containing 1% FBS without growth supplements). Twenty hours after cell seeding, 500 μL of a solution of each peptide in the culture medium was added to each well to a final peptide concentration of 3, 10, 30, 100 or 300 μM. To control wells, 500 μL of the culture medium alone was added. The cells were cultured in a 5% CO2 incubator at 37° C. for 5 days. After the culture, the culture supernatant was transferred into a 1.5-mL tube and centrifuged at 15,000 rpm at 4° C. for 5 minutes, and the supernatant was harvested in a fresh tube. The amount of hyaluronic acid in the culture supernatant was determined using QnE Hyaluronic Acid (HA) ELISA Assay (Biotech Trading Partners) in accordance with the kit protocol. The percent hyaluronic acid production was calculated as the ratio (%) of the ELISA absorbance of each peptide addition group to that of the control group. The effect of promoting hyaluronic acid production was evaluated on the basis of the percent hyaluronic acid production.
The examination was conducted in the same manner as in Example 4 except that the percent hyaluronic acid production was determined as follows: the amount of hyaluronic acid was quantified from the ELISA calibration curve and the quantified value was used to calculate the ratio (%) of the amount of the hyaluronic acid production of each peptide addition group to that of the control group.

[4] = highest value over 0.3, 1, 3, 10 and 30 μM
[5] = Example 4, 3 to 300 μM, ELISA absorbance ratio
[6] = ratio of ELISA absorbance (Example 4)
[7] = at concentrations of 0.3 to 30 μM (Example 2)
[8] = at concentrations of 30 to 300 μM (Example 3)
[9] = highest value over 3, 10, 30, 100 and 300 μM
[10] = Example 5, 3 to 300 μM, ELISA calibration curve
[11] = amount quantified from ELISA calibration curve (Example 5)

Substance	sensitization potential [1]	Fibroblast growth (% of control) [2, 4]	increase of hyaluronic acid production by fibroblasts [3, 5]	Hyaluronic acid production (% of control) [3, 6]	effect of promoting fibroblast growth [2, 7]	effect of promoting fibroblast growth [2, 8]	Fibroblast growth (% of control) [2, 9]	increase of hyaluronic acid production by fibroblasts [3, 10]	Hyaluronic acid production (% of control) [3, 11]
Ac-HRLKR-NH2 [OSK-9, HRLKR]	negative								
ELKLI (Ac-ELKLI-NH2) [OSK-2]		99.7 % of control	increased the amount of the hyaluronic acid production by fibroblasts	184.0 % of control					
ELKLIFLHRLKRLRKRLKRK (Ac-ELKLIFLHRLKRLRKRLKRK-NH2) [OSK-1]		146.4 % of control			exhibited the effect of promoting fibroblast growth	exhibited the effect of promoting fibroblast growth	144.9 % of control	increased the amount of the hyaluronic acid production by fibroblasts	2715.8 % of control
FLHRL (Ac-FLHRL-NH2) [OSK-7]		96.8 % of control		75.2 % of control					
HRLKR [OSK-20]									94.0 % of control
KLIFL (Ac-KLIFL-NH2) [OSK-4]		102.6 % of control	increased the amount of the hyaluronic acid production by fibroblasts	212.4 % of control	exhibited the effect of promoting fibroblast growth				
KRLKR (Ac-KRLKR-NH2) [OSK-16]		106.1 % of control	increased the amount of the hyaluronic acid production by fibroblasts	110.6 % of control	exhibited the effect of promoting fibroblast growth				
KRLRK (Ac-KRLRK-NH2) [OSK-12]		100.3 % of control		72.0 % of control	exhibited the effect of promoting fibroblast growth				
LHRLK (Ac-LHRLK-NH2) [OSK-8]		98.8 % of control	increased the amount of the hyaluronic acid production by fibroblasts	110.5 % of control					
LIFLH (Ac-LIFLH-NH2) [OSK-5]		97.6 % of control		65.6 % of control					
LKLIF (Ac-LKLIF-NH2) [OSK-3]		104.7 % of control		79.9 % of control	exhibited the effect of promoting fibroblast growth				
LKR [OSK-19] (Ac-Leu-Lys-Arg-NH2)								increased the amount of the hyaluronic acid production by fibroblasts	117.6 % of control
LKR [OSK-23]								increased the amount of the hyaluronic acid production by fibroblasts	113.7 % of control
LKRLR [OSK-11]		112.5 % of control	increased the amount of the hyaluronic acid production by fibroblasts	112.1 % of control	exhibited the effect of promoting fibroblast growth	exhibited the effect of promoting fibroblast growth	158.5 % of control	increased the amount of the hyaluronic acid production by fibroblasts	255.0 % of control
LRKRL (Ac-LRKRL-NH2) [OSK-14]		106.8 % of control	increased the amount of the hyaluronic acid production by fibroblasts	123.6 % of control	exhibited the effect of promoting fibroblast growth				
RKRLK (Ac-RKRLK-NH2) [OSK-15]		102.9 % of control	increased the amount of the hyaluronic acid production by fibroblasts	103.9 % of control	exhibited the effect of promoting fibroblast growth				
RLKR [OSK-18] (Ac-RLKR-NH2)								increased the amount of the hyaluronic acid production by fibroblasts	131.9 % of control
RLKR [OSK-22]								increased the amount of the hyaluronic acid production by fibroblasts	101.1 % of control
RLKRK (Ac-RLKRK-NH2) [OSK-17]		104.2 % of control		81.8 % of control	exhibited the effect of promoting fibroblast growth				
RLKRL [OSK-10]		116.2 % of control	increased the amount of the hyaluronic acid production by fibroblasts	198.2 % of control	exhibited the effect of promoting fibroblast growth	exhibited the effect of promoting fibroblast growth	149.9 % of control	increased the amount of the hyaluronic acid production by fibroblasts	409.1 % of control
RLKRL [OSK-21]								increased the amount of the hyaluronic acid production by fibroblasts	109.3 % of control
RLRKR (Ac-RLRKR-NH2) [OSK-13]		99.3 % of control		74.3 % of control					
